Laboratory results: patent publication US10925851B2 (Regents of the University of Minnesota, priority 2018, dated 2021)
“Also recorded” adds a separate entry of the source. Like-named read-outs stand apart in the source and are kept apart here.

Columns and labels:
mice [1] = experiment: Combination therapy with morphine, isobolographic analysis in tail-flick assay; details: for Dose Reduction Index (DRI) Tosedostat: in combination with morphine; for ED50: Mus musculus, ip
male CF1 mice = experiment: Hot-plate test (acute thermal pain)
Method: The hot plate was the top surface of an enclosed cylindrical glass bath through which thermostatically controlled hot water was circulated. Under the conditions used, the temperature of the surface of the cylinder was maintained at 55° C. […] Reaction times were also determined twice for each mouse at 15-min intervals half an hour before injecting the drug to establish a baseline reaction time control value. Mice having a mean reaction time greater than 13 seconds were excluded as non-responders.
In this transient pain model, a thermal analgesiometer hot-plate was utilized for the determination of antinociceptive potency of test compounds against acute thermal stimulus. Mice were administered compounds via intraperitoneal (i.p.) or intracerebroventricular (i.c.v.) routes. […] The results are expressed as a percent of the maximum possible effect (% MPE) according to the equation: % MPE=[(Post-drug latency−Pre-drug latency)/(Cutoff−Pre-drug latency)]×100.
The hot-plate was the top surface of an enclosed cylindrical glass bath through which thermostatically controlled hot water was circulated. Under the conditions used, the temperature of the surface of the cylinder was maintained at 55° C. […] Test compounds were administered via intraperitoneal (i.p.) or intracerebroventricular (i.c.v.) routes. […] Animals with a mean reaction time greater than 13 seconds were excluded as non-responders.

[2] = Distribution of tosedostat in brain and plasma (LC-MS/MS); format: in vivo, mouse; details: 10 mg/Kg i.p., over 4 hours
Method: The subjects were intraperitoneally injected with ketamine-xylazine cocktail (100 mg/kg ketamine+10 mg/kg xylazine) 2 minutes prior to the time-point being analyzed. Specifically, samples were collected at 0.25, 0.5, 1, 2, and 4 hours after the drug administration. […] Samples were immediately centrifuged at 3000×rpm for 10 minutes at 4° C. and the separated top plasma layer was transferred into a new tube. Blood samples stored at −80° C. until LC-MS/MS analysis. For brain samples, brain tissue was extracted from the animal and washed with copious volumes of ice-cold D-PBS for removal of blood from the sample. and Collect brain and wash the brain with ice-cold DPBS properly to remove blood. The sample was then gently wiped with absorbent paper, weighed, and transferred into a 15 mL tube. The brain samples were homogenized by adding 1:5 (w/v) of ice-cold D-PBS into the tube and using mechanical homogenizer on them. Homogenized brain samples were also stored at −80° C.
LC-MS/MS analysis: Frozen plasma and brain homogenate samples were thawed and rapidly quenched as detailed here. For plasma samples, 30 μL of DMSO and 60 μL of acetonitrile containing 0.1% formic acid were added to 30 μL of each unknown thawed plasma sample. For brain homogenate samples, 10 μL of DMSO and 60 μL of acetonitrile containing 0.1% formic acid were added to 30 μL of each unknown sample. […]

male CF-1 mice = experiment: Tail-flick assay (acute thermal pain); format: in vivo; details: i.c.v. 100 μg per mouse, 15-90 min
Method: The Tail-Flick test comprises of acute nociception in which the tail of the test animal is thermally stimulated. The time it takes for the animal to either flick or withdraw its tail is recorded as a measure of the response to the thermal stimuli. For this test, mice were gently restrained in a cloth; the tail-flick beam was centered on the dorsal surface of the tail (about 15 mm from the end of the tail). The heat source was activated, and the latency for withdrawal of the tail was recorded. The intensity of the tail-flick beam was adjusted so that the average withdrawal time of the baseline measurement was 2 to 4 sec. For each animal, a baseline response latency was determined in two consecutive responses measured at 5 minute intervals. Animals were tested at 15, 30, 45, 60, 75, and 90 minutes after drug administration.
While hot-plate method is more sensitive at supraspinal level, the tail-flick method mostly embodies a spinal reflex response to noxious stimuli. […] The time it takes for the animal to either flick or withdraw its tail is recorded as a measure of the response to the stimuli. […]
Columbus Instruments tail-flick analgesiometer was employed for this experiment. […] The heat source was activated, and the latency for withdrawal of the tail recorded. […] For each animal, a baseline response latency was determined in two consecutive responses measured at 5 min intervals. […]

mice [3] = experiment: Co-administration of opioid antagonist naloxone in hot-plate and tail-flick assays; format: in vivo, mouse
Method: Naloxone dissolved in saline was either administered subcutaneously (s.c.; dosage: 5 mg/Kg) via an injection to the interscapular skin, or it was given intracerebroventricularly (5 μg per mouse).
Naloxone is a broad-spectrum opioid receptor antagonist. It is known to interact with, mu- (μ-), delta- (δ-), and kappa- (κ-) opioid receptors, with highest affinity for the μ receptors. […] Naloxone dissolved in saline was delivered subcutaneously (s.c.) via an injection to the interscapular skin.
5 mg/Kg naloxone dissolved in saline was administered subcutaneously (s.c.) via an injection to the interscapular skin. Analgesic efficacy for various time-points was determined in hot-plate and tail-flick assays as detailed above.

mice [4] = experiment: Acetic acid writhing test (persistent pain); format: in vivo, mouse
Method: Acclimatized animals are treated systemically with a dilute solution of acetic acid inducing abdominal constrictions (writhes) or extension of hind limbs in the animal. The writhes and extensions are counted within a predetermined period of time to analyze the efficacy of the test compound. […] Percent inhibition is calculated according to the equation: % Inhibition=[(Mean number of writhes for control−Mean number of writhes for test compound)/(Mean number of writhes for control)]×100.
The mice were given vehicle or test compounds 15 min before acetic acid administration. Subsequently, all the groups of mice were injected with 1% (10 mL/kg) acetic acid solution intraperitoneally to induce writhing. The animals display characteristic movements such as extension of hind limb, abdominal constriction, and trunk twisting movement called writhing. The numbers of writhing episodes in 30 min period beginning at the time of the acetic acid administration were counted. […] APAP was dissolved in saline. Both test compounds were delivered intraperitoneally to the test animals.

CC(C)C[C@@H](C(=O)N[C@H](C(=O)OC1CCCC1)c1ccccc1)[C@H](O)C(=O)NO [Tosedostat]
Dose Reduction Index (DRI) Tosedostat (mice [1]; 15 min): 2.52
Dose Reduction Index (DRI) Tosedostat (mice [1]; 30 min): 1.91
Dose Reduction Index (DRI) Tosedostat (mice [1]; 45 min): 1.79
Dose Reduction Index (DRI) Tosedostat (mice [1]; 60 min): 2.21
ED50 (mice [1]; 0.25 h, read-out: Tosedostat ED50 (±SEM)): 89 ± 109 mg/kg
ED50 (mice [1]; 0.5 h, read-out: Tosedostat ED50 (±SEM)): 85.8 ± 132 mg/kg
ED50 (mice [1]; 0.75 h, read-out: Tosedostat ED50 (±SEM)): 71.5 ± 47.6 mg/kg
ED50 (mice [1]; 1 h, read-out: ED50, given alone): 58.1 to 82 mg/kg
ED50 (mice [1]; 1 h, read-out: Tosedostat ED50 (±SEM)): 97.3 ± 33.6 mg/kg
analgesic effect (% MPE time course) (male CF1 mice; i.c.v. 100 μg per mouse, 15-90 min post injection): did not show analgesic effect; also recorded: nominal analgesic effect; also recorded: did not register substantial analgesic outcome; also recorded: ineffective in furnishing an antinociceptive response
analgesic effect, single time-point (male CF1 mice; i.c.v. 100 μg per mouse, 15 minutes after injection): nominal analgesic effect
analgesic response in hot-plate compared to tail-flick experiments (male CF1 mice; i.p., over the course of 90 minutes): about two-fold better analgesic response
presence in brain homogenate compared to plasma samples [2]: minimal presence of tosedostat in the brain homogenate samples
analgesic effect (male CF-1 mice): does not impart analgesic effect; also recorded: does not prompt a potent analgesic effect; also recorded: ineffective in furnishing an antinociceptive response
effect of centrally administered naloxone on analgesic response of tosedostat (mice [3]; tosedostat 58.1 mg/Kg i.p. + naloxone 5 μg per mouse i.c.v.): no attenuation of analgesic response
effect of subcutaneous naloxone on analgesic action of tosedostat (mice [3]; tosedostat 58.1 mg/Kg i.p. + naloxone 5 mg/Kg s.c.): partially blocked the analgesic action
dosage required for analgesic effect equivalent to 200 mg/Kg APAP (mice [4]; i.p.): 1 mg/kg
inhibition of writhings (mice [4]; i.p. 50 mg/Kg): > 90%
attenuation of writhing episodes compared to control groups (mice [4]; i.p., 30-minute count after acetic acid): significant attenuation of writhing episodes in a dose-dependent manner
